In patent publication US8822502B2, “Insecticidal compounds” (Syngenta Crop Protection LLC, priority 2008, dated 2014):

Key:
Assay type in all cases: in vivo
Spodoptera littoralis = Spodoptera littoralis cotton leaf disc spray test; settings: foliar, 72 h, application rate 200 ppm, sprayed cotton leaf discs, L1 larvae, 3 days after treatment, mortality, feeding behavior, growth regulation
Source text: Spodoptera Littoralis (Egyptian Cotton Leafworm):
Cotton leaf discs were placed on agar in a 24-well microtiter plate and sprayed with test solutions at an application rate of 200 ppm. After drying, the leaf discs were infested with 5 L1 larvae. The samples were checked for mortality, feeding behavior, and growth regulation 3 days after treatment (DAT).

Heliothis virescens = Heliothis virescens egg / artificial diet test; settings: 96 h, application rate 200 ppm (concentration in well 18 ppm), eggs 0-24 h old on artificial diet, 4 days, egg mortality, larval mortality, growth regulation
Experimental: Heliothis Virescens (Tobacco Budworm):
Eggs (0-24 h old) were placed in 24-well microtiter plate on artificial diet and treated with test solutions at an application rate of 200 ppm (concentration in well 18 ppm) by pipetting. After an incubation period of 4 days, samples were checked for egg mortality, larval mortality, and growth regulation.

Plutella xylostella = Plutella xylostella artificial diet test; settings: 144 h, application rate 200 ppm (concentration in well 18 ppm), L2 larvae, 6 days, larval mortality, growth regulation
Experimental: Plutella Xylostella (Diamond Back Moth):
(§1) 24-well microtiter plate (MTP) with artificial diet was treated with test solutions at an application rate of 200 ppm (concentration in well 18 ppm) by pipetting. After drying, the MTP's were infested with L2 larvae (7-12 per well). After an incubation period of 6 days, samples were checked for larval mortality and growth regulation.

Diabrotica balteata = Diabrotica balteata artificial diet test; settings: 120 h, application rate 200 ppm (concentration in well 18 ppm), L2 larvae, 5 days, larval mortality, growth regulation
Experimental: Diabrotica Balteata (Corn Root Worm):
as §1, with “A 24-well” for “24-well”, “(6-10” for “(7-12”, “5” for “6”

Thrips tabaci = Thrips tabaci sunflower leaf disc spray test; settings: foliar, 168 h, application rate 200 ppm, sprayed sunflower leaf discs, population of mixed ages, 7 days, mortality
Experimental: Thrips Tabaci (Onion Thrips):
Sunflower leaf discs were placed on agar in a 24-well microtiter plate and sprayed with test solutions at an application rate of 200 ppm. […] After an incubation period of 7 days, samples were checked for mortality.

Tetranychus urticae = Tetranychus urticae bean leaf disc spray test; settings: foliar, 192 h, application rate 200 ppm, sprayed bean leaf discs, mite populations of mixed ages, 8 days, egg, larval and adult mortality
Source text: Tetranychus Urticae (Two-Spotted Spider Mite):
Bean leaf discs on agar in 24-well microtiter plates were sprayed with test solutions at an application rate of 200 ppm. After drying, the leaf discs are infested with mite populations of mixed ages. 8 days later, discs are checked for egg mortality, larval mortality, and adult mortality.

Measured: pest or weed control at 200 ppm

Cc1cc(C2=NOC(c3cc(Cl)cc(Cl)c3)(C(F)(F)F)C2Cl)ccc1C(=O)NC1CSC1 (centres unmarked) [B21]
≥ 80%: all assays above

O=C(Nc1cccc(F)c1)c1ccc(C2=NOC(c3cc(Cl)cc(Cl)c3)(C(F)(F)F)C2Br)c2ccccc12 (centres unmarked) [F14]
not listed: Tetranychus urticae
≥ 80%: all other assays above

CCNC(=O)c1ccc(C2=NOC(c3cc(Cl)cc(Cl)c3)(C(F)(F)F)C2Cl)cc1C (centres unmarked) [B3]
≥ 80%: all assays above

Cc1cc(C2=NOC(c3cc(Cl)cc(Cl)c3)(C(F)(F)F)C2Br)ccc1C(=O)NC1C[S+]([O-])C1 (single isomer, unassigned) [A25, 4-[4-bromo-5-(3,5-dichloro-phenyl)-5-trifluoromethyl-4,5-dihydro-isoxazol-3-yl]-2-methyl-N-(1-oxo-thietan-3-yl)-benzamide]
≥ 80%: Diabrotica balteata

Cc1cc(C2=NOC(c3cc(Cl)cc(Cl)c3)(C(F)(F)F)C2(F)F)ccc1C(=O)NCc1ccccn1 (centres unmarked) [C1, 4-[5-(3,5-dichloro-phenyl)-4,4-difluoro-5-trifluoromethyl-4,5-dihydro-isoxazol-3-yl]-2-methyl-N-pyridin-2-ylmethyl-benzamide]
not listed: Thrips tabaci
≥ 80%: all other assays above

Cc1cc(C2=NOC(c3cc(Cl)cc(Cl)c3)(C(F)(F)F)C2Cl)ccc1C(=O)NC1CCC1 (centres unmarked) [B23]
≥ 80%: all assays above

O=C(NCc1ccccc1)c1ccc(C2=NOC(c3cc(Cl)cc(Cl)c3)(C(F)(F)F)C2Br)c2ccccc12 (centres unmarked) [F8]
not listed: Tetranychus urticae
≥ 80%: all other assays above

Cc1cc(C2=NOC(c3cc(Cl)cc(Cl)c3)(C(F)(F)F)C2S(C)(=O)=O)ccc1C(=O)NC1CSC1 (centres unmarked) [D4, 4-[5-(3,5-dichloro-phenyl)-4-methylsulfonyl-5-trifluoromethyl-4,5-dihydro-isoxazol-3-yl]-2-methyl-N-thietan-3-yl-benzamide]
≥ 80%: Heliothis virescens | Tetranychus urticae

CCCCNC(=O)c1ccc(C2=NOC(c3cc(Cl)cc(Cl)c3)(C(F)(F)F)C2Br)c2ccccc12 (centres unmarked) [F3]
≥ 80%: Spodoptera littoralis | Heliothis virescens | Plutella xylostella | Thrips tabaci

O=C(NC1CSC1)c1ccc(C2=NOC(c3cc(Cl)cc(Cl)c3)(C(F)(F)F)C2Br)c2ccccc12 (centres unmarked) [F21]
≥ 80%: all assays above

CCCCNC(=O)c1ccc(C2=NOC(c3cc(Cl)cc(Cl)c3)(C(F)(F)F)C2Cl)cc1C (centres unmarked) [B1]
≥ 80%: all assays above

Cc1cc(C2=NOC(c3cc(Cl)cc(Cl)c3)(C(F)(F)F)C2Cl)ccc1C(=O)NCc1ccccc1 (centres unmarked) [B8]
≥ 80%: all assays above

CCCCNC(=O)c1ccc(C2=NOC(c3cc(Cl)cc(Cl)c3)(C(F)(F)F)C2SC)cc1C (centres unmarked) [D1, N-butyl-4-[5-(3,5-dichloro-phenyl)-4-methylsulfanyl-5-trifluoromethyl-4,5-dihydro-isoxazol-3-yl]-2-methyl-benzamide]
≥ 80%: Spodoptera littoralis | Heliothis virescens | Plutella xylostella | Diabrotica balteata

CCNC(=O)c1ccc(C2=NOC(c3cc(Cl)cc(Cl)c3)(C(F)(F)F)C2Br)c2ccccc12 (centres unmarked) [F2]
≥ 80%: Diabrotica balteata

Cc1cc(C2=NOC(c3cc(Cl)cc(Cl)c3)(C(F)(F)F)C2Br)ccc1C(=O)Nc1cccc(F)c1 (centres unmarked) [A15]
≥ 80%: all assays above

CCCCNC(=O)c1ccc(C2=NOC(c3cc(Cl)cc(Cl)c3)(C(F)(F)F)C2C)cc1C (centres unmarked) [E1, N-butyl-4-[5-(3,5-dichloro-phenyl)-4-methyl-5-trifluoromethyl-4,5-dihydro-isoxazol-3-yl]-2-methyl-benzamide]
≥ 80%: all assays above

CSC1C(c2ccc(C(=O)NC3CSC3)c(C)c2)=NOC1(c1cc(Cl)cc(Cl)c1)C(F)(F)F (centres unmarked) [D3, 4-[5-(3,5-dichloro-phenyl)-4-methylsulfanyl-5-trifluoromethyl-4,5-dihydro-isoxazol-3-yl]-2-methyl-N-thietan-3-yl-benzamide]
not listed: Thrips tabaci
≥ 80%: all other assays above

CCCCNC(=O)c1ccc(C2=NOC(c3cc(Cl)cc(Cl)c3)(C(F)(F)F)C2Br)cc1C (centres unmarked) [A1, 4-[4-bromo-5-(3,5-dichloro-phenyl)-5-trifluoromethyl-4,5-dihydro-isoxazol-3-yl]-N-butyl-2-methyl-benzamide]
not listed: Thrips tabaci
≥ 80%: all other assays above

Cc1cc(C2=NOC(c3cc(Cl)cc(Cl)c3)(C(F)(F)F)C2Cl)ccc1C(=O)Nc1cccc(F)c1 (centres unmarked) [B14]
≥ 80%: Spodoptera littoralis | Heliothis virescens | Plutella xylostella

CCCCNC(=O)c1ccc(C2=NOC(c3cc(Cl)cc(Cl)c3)(C(F)(F)F)C2S(C)(=O)=O)cc1C (centres unmarked) [D2, N-butyl-4-[5-(3,5-dichloro-phenyl)-4-methylsulfonyl-5-trifluoromethyl-4,5-dihydro-isoxazol-3-yl]-2-methyl-benzamide]
≥ 80%: Spodoptera littoralis | Plutella xylostella

CCC(C)NC(=O)c1ccc(C2=NOC(c3cc(Cl)cc(Cl)c3)(C(F)(F)F)C2Br)c2ccccc12 (centres unmarked) [F6]
not listed: Tetranychus urticae
≥ 80%: all other assays above

CCC(C)NC(=O)c1ccc(C2=NOC(c3cc(Cl)cc(Cl)c3)(C(F)(F)F)C2Cl)cc1C (centres unmarked) [B6]
≥ 80%: all assays above

Cc1cc(C2=NOC(c3cc(Cl)cc(Cl)c3)(C(F)(F)F)C2C)ccc1C(=O)NC1CSC1 (centres unmarked) [E2, 4-[5-(3,5-dichloro-phenyl)-4-methyl-5-trifluoromethyl-4,5-dihydro-isoxazol-3-yl]-2-methyl-N-thietan-3-yl-benzamide]
≥ 80%: all assays above
